Source: ChEMBL document CHEMBL1128786, “Design, synthesis and evaluation of C/D-ring analogs of the fungal metabolite K-76 as potential complement inhibitors” (Bioorg Med Chem Lett, 1995)

Experiments:
Homo sapiens = species on record: Homo sapiens; experiment: The concentration of compound required to inhibit complement induced hemolysis by 50%; type: functional
[1] = The concentration of compound required to cause 50% hemolysis in the absence of complement; type: functional, Ovis aries

| Structure (SMILES) | IC50 (Homo sapiens) | EC50 [1] |
| --- | --- | --- |
| COc1cc(C=O)cc2c1CC(C)(C)O2 | 1100 µM | > 1460 µM |
| COc1cc(C(=O)O)cc2c1CC(C)(C)O2 | > 1350 µM | > 1350 µM |
| C[C@@H]1CCC2C(C)(C)[C@H](O)[C@H](O)C[C@]2(C)[C@@]12Cc1c(O)cc(C(=O)O)c(C=O)c1O2 (some centres not stated) | – | > 680 µM |
| CC1(C)Cc2c(O)cc(C(=O)O)cc2O1 | > 1440 µM | > 1440 µM |
| CC1(C)Cc2c(Oc3ccccc3)cc(-c3nn[nH]n3)cc2O1 | 195 µM | 650 µM |
| CC1(C)Cc2c(Oc3ccccc3)cc(C=O)cc2O1 | > 1120 µM | > 1120 µM |
| CC1(C)Cc2c(O)cc(C=O)cc2O1 | > 1560 µM | > 1560 µM |
| COc1cc(-c2nn[nH]n2)cc2c1CC(C)(C)O2 | 245 µM | > 1220 µM |
| CC1(C)Cc2c(Oc3ccccc3)cc(C(=O)O)cc2O1 | > 1060 µM | > 1060 µM |
